Source: PMC8119466, “A screen of FDA-approved drugs identifies inhibitors of protein tyrosine phosphatase 4A3 (PTP4A3 or PRL-3)” (Scientific Reports, 2021)
Counter-ions that a name gives are not always drawn. Like-named read-outs stand apart in the source and are kept apart here. Starred links: 1 amine or outer side, 2 acyl side, 3 side chain; linkers in the order of their positions; H or OH if unused. Positions of bridges follow the written chain, without caps; N, C: chain ends. Non-standard residues stand in square brackets, D forms with d. Residues, ends and D or L forms follow the SMILES beside them. *: point of attachment. hTyr(3S-OH,4S-OH,3'-OSO3H) = N[C@H](C(=O)O)[C@H](O)[C@@H](O)c1ccc(O)c(OS(=O)(=O)O)c1; Orn(4R-OH,5R-OH) = O=C([C@H](C[C@@H](O)[C@@H](O)N[*:3])N[*:1])[*:2]; Pro(3S-OH,4S-Me) = C[C@H]1CN[C@H](C(=O)O)[C@H]1O; X1 = CCCCCOc1ccc(-c2cc(-c3ccc(C(=O)*)cc3)no2)cc1; Gln(3R-OH) = NC(=O)C[C@@H](O)[C@H](N)C(=O)O; Hyp = O=C(O)[C@@H]1C[C@@H](O)CN1

Assays:
Type in all cases: biochemical
[1] = biological target: T1, recombinant PRL-3 (Homo sapiens, UniProt O75365); assay: In vitro phosphatase assay (DiFMUP hydrolysis), PRL-3; note: test concentration or dose not given here
T1 construct: 6xHis (N, cleaved yes); made in house; host or cells: E. coli One Shot BL21 Star

[2] = biological target: T2, recombinant PRL-1 (Homo sapiens, UniProt Q93096); assay: In vitro phosphatase assay (DiFMUP hydrolysis), PRL-1; note: test concentration or dose not given here
T2 construct: 6xHis (N, cleaved yes); made in house; host or cells: E. coli One Shot BL21 Star
T2 sequence (Q93096 1-173): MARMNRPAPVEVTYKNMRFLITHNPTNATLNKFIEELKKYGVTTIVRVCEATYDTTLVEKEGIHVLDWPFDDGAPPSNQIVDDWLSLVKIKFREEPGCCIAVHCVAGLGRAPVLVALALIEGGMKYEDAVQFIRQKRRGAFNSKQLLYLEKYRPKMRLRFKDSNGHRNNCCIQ

[3] = biological target: T3, recombinant PRL-2 (Homo sapiens, UniProt Q12974); assay: In vitro phosphatase assay (DiFMUP hydrolysis), PRL-2;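 note: PRL-2 activity read as DiFMUP hydrolysis after 20 min at room temperature with drug, enzyme first pre-reduced at 4 °C for 20 min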
T3 construct: 6xHis (N, cleaved yes); made in house; host or cells: E. coli One Shot BL21 Star
T3 sequence (Q12974 1-167): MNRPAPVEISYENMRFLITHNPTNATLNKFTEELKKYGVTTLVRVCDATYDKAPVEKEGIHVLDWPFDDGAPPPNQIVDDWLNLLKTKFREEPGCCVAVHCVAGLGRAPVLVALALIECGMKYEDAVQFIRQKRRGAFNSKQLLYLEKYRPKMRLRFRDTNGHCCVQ

[4] = FDA-approved drug screen, compared to DMSO

T1 sequence (O75365 whole entry): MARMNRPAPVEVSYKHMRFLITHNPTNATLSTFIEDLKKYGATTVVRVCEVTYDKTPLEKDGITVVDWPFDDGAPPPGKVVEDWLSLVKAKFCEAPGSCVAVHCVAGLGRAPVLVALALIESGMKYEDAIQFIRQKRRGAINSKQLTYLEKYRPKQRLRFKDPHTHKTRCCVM

SMILES	% Phosphatase Activity (compared to DMSO) PRL-3 [1, 4]	% Phosphatase Activity (compared to DMSO) PRL-1 [2, 4]	% Phosphatase Activity (compared to DMSO) PRL-2 [3, 4]	% Phosphatase Activity (compared to DMSO) PRL-3 [1]	% Phosphatase Activity (compared to DMSO) PRL-1 [2]	% Phosphatase Activity (compared to DMSO) PRL-2 [3]
C[C@H](N)[C@H](O)c1cccc(O)c1 [Metaraminol Bitartrate]	94%	112%	106%	–	–	–
CN(C)C(=N)N=C(N)N [Metformin HCl]	87%	102%	78%	–	–	–
C=C1c2cccc(O)c2C(=O)C2=C(O)[C@]3(O)C(=O)C(C(N)=O)=C(O)[C@@H](N(C)C)[C@@H]3[C@@H](O)[C@H]12 [Methacycline HCl]	83%	82%	65%	–	–	–
CC(=O)/N=c1/sc(S(N)(=O)=O)nn1C [Methazolamide]	88%	110%	114%	–	–	–
C1N2CN3CN1CN(C2)C3 [Methenamine]	87%	112%	109%	–	–	–
Cn1cc[nH]c1=S [Methimazole]	82%	104%	97%	–	–	–
COc1ccccc1OCC(O)COC(N)=O (stereo not drawn) [Methocarbamol]	100%	92%	91%	–	–	–
CN(Cc1cnc2nc(N)nc(N)c2n1)c1ccc(C(=O)N[C@@H](CCC(=O)O)C(=O)O)cc1 [Methotrexate]	70%	92%	83%	–	–	–
COc1c2occc2cc2ccc(=O)oc12 [Methoxsalen]	78%	81%	99%	–	–	–
C[N+]1(C)[C@@H]2C[C@@H](OC(=O)[C@H](CO)c3ccccc3)C[C@H]1[C@@H]1O[C@@H]12 [Methscopolamine]	88%	86%	107%	–	–	–
CN1C(CCl)Nc2cc(Cl)c(S(N)(=O)=O)cc2S1(=O)=O (stereo not drawn) [Methyclothiazide]	62%	100%	114%	–	–	–
C[C@](N)(Cc1ccc(O)c(O)c1)C(=O)O [Methyldopa]	70%	98%	95%	–	–	–
CN(C)c1ccc2nc3ccc(=[N+](C)C)cc-3sc2c1 [Methylene Blue]	45%	55%	72%	–	–	–
C[C@H]1C[C@@H]2[C@H]([C@@H](O)C[C@@]3(C)[C@H]2CC[C@]3(O)C(=O)CO)[C@@]2(C)C=CC(=O)C=C12 [Methylprednisolone]	92%	90%	95%	–	–	–
Cc1cc(=O)[nH]c(=S)[nH]1 [Methylthiouracil]	75%	110%	93%	–	–	–
Cc1cc2c(cc1S(N)(=O)=O)S(=O)(=O)CCC2 [Meticrane]	83%	104%	94%	–	–	–
CCN(CC)CCNC(=O)c1cc(Cl)c(N)cc1OC.Cl [MetoclopraMide HCl]	75%	97%	84%	–	–	–
Cc1ccccc1N1C(=O)c2cc(S(N)(=O)=O)c(Cl)cc2NC1C (stereo not drawn) [Metolazone]	121%	144%	163%	–	–	–
COCCc1ccc(OCC(O)CNC(C)C)cc1 (stereo not drawn) [Metoprolol Tartrate]	98%	89%	109%	–	–	–
Cc1ncc([N+](=O)[O-])n1CCO [Metronidazole]	87%	89%	92%	–	–	–
CC[C@H](C)C(=O)O[C@H]1CCC=C2C=C[C@H](C)[C@H](CC[C@@H]3C[C@@H](O)CC(=O)O3)[C@H]21 [Mevastatin]	71%	88%	89%	–	–	–
Cc1cccc(C)c1OCC(C)N (stereo not drawn) [Mexiletine HCl]	–	–	–	78%	98%	106%
CC1(C)S[C@@H]2[C@H](NC(=O)[C@H](NC(=O)N3CCN(S(C)(=O)=O)C3=O)c3ccccc3)C(=O)N2[C@H]1C(=O)O [Mezlocillin Sodium]	67%	92%	91%	–	–	–
CN1CCN2c3ccccc3Cc3ccccc3C2C1 (stereo not drawn) [Mianserin HCl]	59%	95%	99%	–	–	–
CCCCCOc1ccc(-c2cc(-c3ccc(C(=O)N[C@H]4C[C@@H](O)[C@@H](O)NC(=O)[C@@H]5[C@@H](O)[C@@H](C)CN5C(=O)[C@H]([C@H](O)CC(N)=O)NC(=O)[C@H]([C@H](O)[C@@H](O)c5ccc(O)c(OS(=O)(=O)[O-])c5)NC(=O)[C@@H]5C[C@@H](O)CN5C(=O)[C@H]([C@@H](C)O)NC4=O)cc3)no2)cc1.[Na+] [Micafungin Sodium] (X1-[Orn(4R-OH,5R-OH)]T[Hyp][hTyr(3S-OH,4S-OH,3'-OSO3H)][Gln(3R-OH)][Pro(3S-OH,4S-Me)]; lactam 1-C)	49%	74%	90%	–	–	–
Clc1ccc(COC(Cn2ccnc2)c2ccc(Cl)cc2Cl)c(Cl)c1 (stereo not drawn) [Miconazole Nitrate]	92%	98%	93%	–	–	–
